In brackets after ≈: the same amount, converted by molar mass. Activity calls are given as the source filed them. The rule behind the calls is not given here. Non-standard residues stand in square brackets, D forms with d. Residues, ends and D or L forms follow the SMILES beside them. Phe(4-NH2) = Nc1ccc(C[C@H](N)C(=O)O)cc1; Phe(4-Me) = Cc1ccc(C[C@H](N)C(=O)O)cc1; Orn = NCCC[C@H](N)C(=O)O
Key:
Candida albicans [1] = experiment: Antifungal activity against Candida albicans by broth microdilution method; format: functional
Pseudomonas aeruginosa = experiment: Anti-bacterial activity against Pseudomonas aeruginosa ATCC 27853 by CLSI method; format: functional
Nakaseomyces glabratus = experiment: Antifungal activity against Candida glabrata ATCC 90030 after 18 to 24 hrs by Alamar blue assay; format: functional
Cryptococcus neoformans [2] = experiment: Induction of cell lysis in Cryptococcus neoformans ATCC 90113 biofilm assessed as corrugated cells at MIC after 1 hr by osmium tetroxide staining based scanning electron microscopic method; format: functional
Escherichia coli [3] = experiment: Anti-bacterial activity against Escherichia coli ATCC 35218 by CLSI method; format: functional; conditions: Escherichia coli, ATCC 35218; for IC50: read-out: IC50
Staphylococcus aureus [4] = experiment: Anti-bacterial activity against methicillin-resistant Staphylococcus aureus ATCC 33591 by CLSI method; format: functional; conditions: Staphylococcus aureus, ATCC 33591; read-out: IC50
Aspergillus fumigatus = experiment: Antifungal activity against Aspergillus fumigatus ATCC 90906 after 68 to 72 hrs by Alamar blue assay; format: functional
Vero = experiment: Cytotoxicity against African green monkey Vero cells up to 10 ug/ml after 48 hrs by neutral red dye based assay; format: cell-based; conditions: chlorocebus sabaeus
Cryptococcus neoformans [5] = experiment: Fungicidal activity against Cryptococcus neoformans ATCC 90113 after 68 to 72 hrs by Alamar blue assay; format: functional
Lipid bilayer [6] = experiment: Binding affinity to EYPC/EYPG small unilamellar vesicles at 0.1 uM by tryptophan fluorescence quenching assay
Staphylococcus aureus [7] = experiment: Anti-bacterial activity against Staphylococcus aureus ATCC 29213 by CLSI method; format: functional; conditions: Staphylococcus aureus, ATCC 29213; read-out: IC50
Pichia kudriavzevii [8] = experiment: Antifungal activity against Candida krusei ATCC 6258 after 18 to 24 hrs by Alamar blue assay; format: functional
[9] = tested on: Mycobacterium intracellulare; experiment: Anti-bacterial activity against Mycobacterium intracellulare ATCC 23068 after 68 to 72 hrs by Alamar blue assay; format: functional, cell-based
Candida albicans [10] = experiment: Antifungal activity against Candida albicans ATCC 90028 after 18 to 24 hrs by Alamar blue assay; format: functional
Cryptococcus neoformans [11] = experiment: Induction of cell lysis in Cryptococcus neoformans ATCC 90113 biofilm assessed as cell perturbation at MIC after 1 hr by osmium tetroxide staining based scanning electron microscopic method; format: functional
Cryptococcus neoformans [12] = experiment: Induction of cell lysis in Cryptococcus neoformans ATCC 90113 biofilm assessed as loss of cell wall at MIC after 1 hr by photungstic acid/ammonium molybdate/uranyl acetatebased scanning based transmission electron microscopic method; format: functional
Lipid bilayer [13] = experiment: Binding affinity to EYPC/cholesterol small unilamellar vesicles at 0.1 uM by tryptophan fluorescence quenching assay; format: ADME
Cryptococcus neoformans [14] = experiment: Antifungal activity against Cryptococcus neoformans ATCC 90113 after 68 to 72 hrs by Alamar blue assay; format: functional
Escherichia coli [15] = experiment: Bactericidal activity against Escherichia coli ATCC 35218 by CLSI method; format: functional
Lipid bilayer [16] = experiment: Disruption of EYPC/EYPG small unilamellar vesicles assessed as disfigured liposomes at 0.5 ug/ml by phosphotungstic acid staining based transmission electron microscopic method
Lipid bilayer [17] = experiment: Disruption of EYPC/EYPG small unilamellar vesicles assessed as lysed liposomes at 0.5 ug/ml by phosphotungstic acid staining based transmission electron microscopic method
Lipid bilayer [18] = experiment: Disruption of EYPC/cholesterol small unilamellar vesicles at 0.5 ug/ml by phosphotungstic acid staining based transmission electron microscopic method; format: ADME
Pichia kudriavzevii [19] = experiment: Fungicidal activity against Candida krusei ATCC 6258 after 18 to 24 hrs by Alamar blue assay; format: functional
Cryptococcus neoformans [20] = experiment: Induction of cell lysis in Cryptococcus neoformans ATCC 90113 biofilm assessed as formation of holes at MIC after 1 hr by osmium tetroxide staining based scanning electron microscopic method; format: functional
[21] = Proteolytic stability assessed as trypsin (unknown origin)-mediated compound hydrolysis at compound to trypsin ratio of 0.5 to […] measured after 24 hrs by RP-HPLC method; format: ADME; conditions: human
[22] = Selectivity index ratio of cytotoxic concentration against African green monkey Vero cells to IC50 for Cryptococcus neoformans ATCC 90113; format: toxicity; conditions: read-out: Selectivity Index
Cryptococcus neoformans [23] = experiment: Induction of cell lysis in Cryptococcus neoformans ATCC 90113 biofilm assessed as formation of pits at MIC after 1 hr by photungstic acid/ammonium molybdate/uranyl acetatebased scanning based transmission electron microscopic method; format: functional

Compound	IC50 (Nakaseomyces glabratus)	IC50 (Escherichia coli [3]) [µg/mL]	IC50 (Staphylococcus aureus [4]) [µg/mL]	IC50 (Aspergillus fumigatus)	Activity (Vero)	MFC (Cryptococcus neoformans [5]) [µg/mL]	Activity (Lipid bilayer [6])	IC50 (Staphylococcus aureus [7]) [µg/mL]	IC50 [9]	IC50 (Candida albicans [10])	Activity (Lipid bilayer [13])	IC50 (Cryptococcus neoformans [14]) [µg/mL]	MIC (Cryptococcus neoformans [14]) [µg/mL]	further results
NCCCC[C@H](NC(=O)[C@@H](Cc1ccccc1)NC(=O)[C@H](Cc1ccccc1)NC(=O)[C@@H](Cc1ccccc1)NC(=O)[C@@H](Cc1c[nH]c2ccccc12)NC(=O)[C@@H](N)Cc1c[nH]cn1)C(N)=O (H-H[dW][dF]F[dF]K-NH2)	–	–	–	–	–	–	–	–	–	–	–	–	–	IC50 (Candida albicans [1]): 6.8 µM
Cc1ccc(C[C@H](NC(=O)[C@@H](Cc2ccccc2)NC(=O)[C@@H](Cc2c[nH]c3ccccc23)NC(=O)[C@@H](N)CCCN)C(=O)N[C@H](Cc2ccccc2)C(=O)N[C@@H](Cc2ccc(N)cc2)C(N)=O)cc1 (H-[Orn][dW][dF][Phe(4-Me)][dF][Phe(4-NH2)]-NH2)	Not Active	19.5 (≈ 20.9 µM)	> 20	Not Active	Non-Toxic	5 (≈ 5.35 µM)	Active	> 20	Not Active	Not Active	Non-Toxic	4.73 (≈ 5.06 µM)	5 (≈ 5.35 µM)	IC50 (Pseudomonas aeruginosa): Not Active; Activity (Cryptococcus neoformans [2]): Active; IC50 (Pichia kudriavzevii [8]): Not Active; Activity (Cryptococcus neoformans [11]): Active; Activity (Cryptococcus neoformans [12]): Active
Cc1ccc(C[C@H](NC(=O)[C@@H](Cc2ccccc2)NC(=O)[C@@H](Cc2c[nH]c3ccccc23)NC(=O)[C@@H](N)CCCN)C(=O)N[C@H](Cc2ccccc2)C(=O)N[C@H](CCCCN)C(N)=O)cc1 (H-[Orn][dW][dF][Phe(4-Me)][dF][dK]-NH2)	Not Active	8.2 (≈ 9.1 µM)	> 20	Not Active	Non-Toxic	0.63 (≈ 0.699 µM)	Active	> 20	Not Active	Not Active	Non-Toxic	0.4 (≈ 0.444 µM)	0.63 (≈ 0.699 µM)	MBC (Escherichia coli [15]): 20 µg/mL (≈ 22.2 µM); IC50 (Pseudomonas aeruginosa; Pseudomonas aeruginosa, ATCC 27853, read-out: IC50): 20 µg/mL (≈ 22.2 µM); MIC (Escherichia coli [3]): 20 µg/mL (≈ 22.2 µM); Activity (Lipid bilayer [16]): Active; Activity (Lipid bilayer [17]): Active; MIC (Pichia kudriavzevii [8]; Pichia kudriavzevii, ATCC 6258): 20 µg/mL (≈ 22.2 µM); IC50 (Pichia kudriavzevii [8]; Pichia kudriavzevii, ATCC 6258, read-out: IC50): 12.1 µg/mL (≈ 13.4 µM); Activity (Lipid bilayer [18]): Non-Toxic; MFC (Pichia kudriavzevii [19]): 20 µg/mL (≈ 22.2 µM); Activity (Cryptococcus neoformans [20]): Active; Stability [21]: Stable; selectivity ratio [22]: 21 to 25; Activity (Cryptococcus neoformans [23]): Active

From ChEMBL document CHEMBL4024712, “Synthesis, stability and mechanistic studies of potent anticryptococcal hexapeptides” (Eur J Med Chem, 2017)
